Patent publication US9540380B2, “Imidazotriazinone compounds” (Ironwood Pharmaceuticals, Inc., priority 2010, dated 2017)

What was measured:
PDE1A = target: T1, PDE1A (Homo sapiens, UniProt P54750); test: Phosphodiesterase Enzyme Screening Assay, PDE1A (selectivity versus PDE9A2); assay type: biochemical; settings: ratio of IC50 values; value greater than 1 indicates greater selectivity for PDE9A2
T1 construct: purchased Reaction Biology Corporation, Malvern, Pa
Excerpt: (§1) Compounds of the invention were screened against PDE1A, PDE1B, PDE2A, PDE3A, PDE3B, PDE4A1A, PDE4B1, PDE4D3, PDE5A1, PDE6C, PDE7A, PDE8A1, PDE9A2, PDE10A2 AND PDE11A isoforms of the phosphodiesterase enzyme to determine activity and overall selectivity through comparative analysis. The assay generally consists of testing the compounds of the invention at 10 concentrations. Where 8-methoxy-IBMX and Zaprinast were used as reference inhibitors.
(§2) The phosphodiesterase enzyme isoforms were obtained from a commercial retailer (Reaction Biology Corporation, Malvern, Pa.) for use in the instant screening assay.
(§3) The analysis was completed using the Caliper LabChip 3000 and a 12-sipper LabChip. LabChip assays are separations-based, meaning that the product and substrate are electrophoretically separated, thereby minimizing interferences and yielding the highest data quality available on any screening platform. Z′ factors for both the EZ Reader and LC3000 enzymatic assays are routinely in the 0.8 to 0.9 range. High Z′ values, few false positives, few false negatives and analytical quality reproducibility are the reasons cited for the increasing reliance on the LabChip assays.
(§4) The off-chip incubation mobility-shift phosphodiesterase assay uses a microfluidic chip to measure the conversion of a fluorescent cyclic AMP substrate to a 5′-AMP product, or a cyclic GMP substrate to a 5′-GMP product. The reaction mixture, from a microtiter plate well, is introduced through a capillary sipper onto the chip, where the fluorescent substrate and product are separated by electrophoresis and detected via laser-induced fluorescence. […] The precision of microfluidics allows researchers to detect subtle interactions between drug candidates and therapeutic targets. The technology is able to detect both strong and weak inhibitors with high accuracy, and routinely identifies drug candidates that conventional techniques miss.
(§5) Reactions were carried out in 100 mM HEPES (pH 7.5), 5 mM MgCl2, 1 mM DTT, 0.003% Brij, 4.0 μM cGMP substrate. The reaction was started by addition of cGMP or cAMP and incubated for 1 hour at R.T. The reaction was terminated by the addition of stop buffer containing 100 mM HEPES (pH 7.5), 15 mM EDTA, 0.015% Brij-35, 5% DMSO. Cyclic AMP/GMP substrate and 5′-AMP/5′-GMP product were separated by charge using electrophoretic mobility shift. Product formed was compared to control wells to determine inhibition or enhancement of enzyme activity.
(§6) One or more reference compounds, depending on phosphodiesterase isoform, selected from 8-methoxy-IBMX, Zaprinast, Trequinsin, Pentoxifyline, Rolipram, and Vinpocetine, Dipyridamole, and BRL-50481 were run alongside client samples to ensure data quality. The resulting IC50 is compared against the historical average and must be within 3-fold of this average.
(§7) Data points were averages of quadruplicate wells and error bars represented the SEM for each point. IC50s were determined using GraphPad Prism Version 5.01 and the log (inhibitor) vs. response variable slope curve fit.

PDE1B = target: T2, PDE1B (Homo sapiens, UniProt Q01064); test: Phosphodiesterase Enzyme Screening Assay, PDE1B (selectivity versus PDE9A2); assay type: biochemical; settings: ratio of IC50 values; value greater than 1 indicates greater selectivity for PDE9A2
T2 construct: purchased Reaction Biology Corporation, Malvern, Pa
Excerpt: as §1, §2, §3, §4, §5, §6, §7

PDE9A2 = target: T3, PDE9A2 (Homo sapiens, UniProt O76083); test: Phosphodiesterase Enzyme Screening Assay, PDE9A2 (Caliper LabChip mobility-shift); assay type: biochemical; settings: 10 concentrations, 4.0 μM cGMP substrate, 1 hour at R.T.; read-out: Band (PDE9A2 IC50)
T3 construct: purchased Reaction Biology Corporation, Malvern, Pa
Excerpt: as §1, §2, §3, §4, §5, §6, §7

PDE9 = PDE9 (Homo sapiens, UniProt O76083); settings: PDE9 affinity for cGMP; cited from earlier work
Sequence of PDE9 (O76083 whole entry): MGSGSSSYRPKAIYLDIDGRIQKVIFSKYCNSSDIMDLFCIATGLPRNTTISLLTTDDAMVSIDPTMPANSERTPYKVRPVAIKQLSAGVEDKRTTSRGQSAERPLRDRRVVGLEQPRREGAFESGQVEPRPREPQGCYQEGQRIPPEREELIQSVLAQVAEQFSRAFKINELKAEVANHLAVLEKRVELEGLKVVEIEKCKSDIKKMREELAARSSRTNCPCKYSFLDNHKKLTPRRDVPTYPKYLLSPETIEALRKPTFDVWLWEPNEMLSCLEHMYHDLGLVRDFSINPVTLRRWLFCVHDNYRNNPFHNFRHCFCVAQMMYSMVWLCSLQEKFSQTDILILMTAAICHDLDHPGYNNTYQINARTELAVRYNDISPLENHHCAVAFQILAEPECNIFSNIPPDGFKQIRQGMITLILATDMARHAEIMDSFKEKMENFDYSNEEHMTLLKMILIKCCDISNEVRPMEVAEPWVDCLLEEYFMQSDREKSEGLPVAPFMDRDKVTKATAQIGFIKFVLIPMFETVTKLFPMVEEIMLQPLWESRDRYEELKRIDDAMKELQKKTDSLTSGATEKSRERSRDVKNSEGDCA

T1 sequence (P54750 whole entry): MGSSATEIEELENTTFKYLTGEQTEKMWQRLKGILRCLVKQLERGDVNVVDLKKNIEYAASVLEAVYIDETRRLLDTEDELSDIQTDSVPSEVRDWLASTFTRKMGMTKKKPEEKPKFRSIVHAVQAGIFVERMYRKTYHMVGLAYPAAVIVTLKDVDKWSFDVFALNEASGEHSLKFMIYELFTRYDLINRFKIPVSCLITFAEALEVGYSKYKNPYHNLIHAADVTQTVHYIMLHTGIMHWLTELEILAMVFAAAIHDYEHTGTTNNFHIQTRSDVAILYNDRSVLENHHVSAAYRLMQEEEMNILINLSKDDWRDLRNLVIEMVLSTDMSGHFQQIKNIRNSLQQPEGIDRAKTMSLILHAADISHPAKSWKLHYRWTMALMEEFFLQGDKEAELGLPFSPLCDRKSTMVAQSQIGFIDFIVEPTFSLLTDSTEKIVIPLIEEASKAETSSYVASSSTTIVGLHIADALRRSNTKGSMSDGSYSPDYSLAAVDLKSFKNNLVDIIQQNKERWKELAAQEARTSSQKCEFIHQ
T3 sequence (O76083 1-533 isoform O76083-2): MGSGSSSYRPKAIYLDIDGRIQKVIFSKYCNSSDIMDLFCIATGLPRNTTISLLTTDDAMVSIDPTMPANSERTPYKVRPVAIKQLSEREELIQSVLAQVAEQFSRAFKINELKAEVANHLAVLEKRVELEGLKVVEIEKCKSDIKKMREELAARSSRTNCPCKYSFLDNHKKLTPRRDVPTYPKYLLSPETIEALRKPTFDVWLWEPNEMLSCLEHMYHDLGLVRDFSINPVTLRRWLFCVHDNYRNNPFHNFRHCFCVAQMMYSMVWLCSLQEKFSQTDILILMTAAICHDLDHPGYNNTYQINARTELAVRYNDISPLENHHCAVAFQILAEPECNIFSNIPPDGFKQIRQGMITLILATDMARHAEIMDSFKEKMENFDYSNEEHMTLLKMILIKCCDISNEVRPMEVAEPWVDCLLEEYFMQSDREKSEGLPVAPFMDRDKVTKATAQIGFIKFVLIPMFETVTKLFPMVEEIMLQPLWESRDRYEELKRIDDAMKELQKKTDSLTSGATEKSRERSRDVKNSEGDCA
T2 sequence (Q01064 whole entry): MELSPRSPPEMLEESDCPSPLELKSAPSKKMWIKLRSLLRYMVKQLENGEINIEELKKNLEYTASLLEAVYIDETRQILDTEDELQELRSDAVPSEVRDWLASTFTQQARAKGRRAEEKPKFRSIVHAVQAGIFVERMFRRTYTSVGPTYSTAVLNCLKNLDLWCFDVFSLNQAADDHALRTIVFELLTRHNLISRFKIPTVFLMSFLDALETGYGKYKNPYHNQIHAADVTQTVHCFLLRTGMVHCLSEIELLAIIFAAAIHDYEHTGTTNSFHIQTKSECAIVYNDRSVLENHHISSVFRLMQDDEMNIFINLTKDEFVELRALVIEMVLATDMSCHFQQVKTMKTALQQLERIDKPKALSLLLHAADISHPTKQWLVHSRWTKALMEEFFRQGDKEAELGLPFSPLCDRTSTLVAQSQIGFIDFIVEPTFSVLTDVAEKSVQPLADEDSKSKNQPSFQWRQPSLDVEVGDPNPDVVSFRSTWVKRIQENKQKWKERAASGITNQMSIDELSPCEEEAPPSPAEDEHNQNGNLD

Structure (SMILES) | PDE1A selectivity (versus PDE9A2) (PDE1A) | PDE1B selectivity (versus PDE9A2) (PDE1B) | IC50 (PDE9A2) [nM] | Km (PDE9) [nM]
C[C@@H]1CN(Cc2cn3ncccc3n2)C[C@H]1c1nn2c(C3CCOCC3)ncc2c(=O)[nH]1 (single isomer, unassigned) [(+)-2-((3,4-trans)-1-(imidazo[1,2-b]pyridazin-2-ylmethyl)-4-] [(+)-2-((3,4-trans)-1-(imidazo[1,2-b]pyridazin-2-ylmethyl)-4-methylpyrrolidin-3-yl)-7-(tetrahydro-2H-pyran-4-yl)imidazo[5,1-f][1,2,4]triazin-4(3H)-one] | 1005 | 1413 |  | 
C[C@@H]1CN(Cc2ccc3ccccc3n2)C[C@H]1c1nn2c(C3CCOCC3)ncc2c(=O)[nH]1 (single isomer, unassigned) [(+)-2-((3,4-trans)-4-methyl-1-(quinolin-2-ylmethyl)pyrrolidi] [(+)-2-((3,4-trans)-4-methyl-1-(quinolin-2-ylmethyl)pyrrolidin-3-yl)-7-(tetrahydro-2H-pyran-4-yl)imidazo[5,1-f][1,2,4]triazin-4(3H)-one] | 621 | 1400 |  | 
C[C@@H]1CN(Cc2ccccc2C#N)C[C@H]1c1nn2c(C3CCOCC3)ncc2c(=O)[nH]1 (single isomer, unassigned) [(+)-2-(((3,4-trans)-3-methyl-4-(4-oxo-7-(tetrahydro-2H-pyran-4-yl)-3,4-dihydroimidazo[5,1-f][1,2,4]triazin-2-yl)pyrrolidin-1-yl)methyl)benzonitrile] | 241 | 220 | < 1000 | 
C[C@@H]1CN(Cc2cccc(C#N)c2)C[C@H]1c1nn2c(C3CCOCC3)ncc2c(=O)[nH]1 (single isomer, unassigned) [(+)-3-(((3,4-trans)-3-methyl-4-(4-oxo-7-(tetrahydro-2H-pyran-4-yl)-3,4-dihydroimidazo[5,1-f][1,2,4]triazin-2-yl)pyrrolidin-1-yl)methyl)benzonitrile] | 942 | 343 | < 1000 | 
C[C@@H]1CN(Cc2ccc(C#N)cc2)C[C@H]1c1nn2c(C3CCOCC3)ncc2c(=O)[nH]1 (single isomer, unassigned) [(−)-4-(((3,4-trans)-3-methyl-4-(4-oxo-7-(tetrahydro-2H-pyran-4-yl)-3,4-dihydroimidazo[5,1-f][1,2,4]triazin-2-yl)pyrrolidin-1-yl)methyl)benzonitrile] | 640 | 1445 | < 1000 | 
Nc1nc2c(ncn2[C@@H]2O[C@@H]3COP(=O)(O)O[C@H]3[C@H]2O)c(=O)[nH]1 [cGMP, cyclic guanosine monophosphate] |  |  |  | ~170
